Experimental data: US20070213291A1, “Therapeutically useful synthetic oligonucleotides” (priority 1999, published 2007)

What was measured:
[1] = tested on: MCF-7 human breast cancer cells; experiment: Cell cycle stage in MCF-7 cells (propidium iodide flow cytometry); type: cell-based; conditions: MCF-7, 5×10^5 cells/ml, 24 h
Description: Cell cycle stage was determined using a […]™ PLUS DNA commercial kit (Becton Dickinson). Briefly, nuclei from cells were obtained by dissolving the cell membrane in a nonionic detergent, eliminating the cell cytoskeleton and nuclear proteins with trypsin, digesting the cellular RNA with RNase and stabilizing the nuclear chromatin with spermine. Propidium iodide was added to the cell nuclei and their fluorescence was analyzed in a flow cytometer equipped with electronic doublet discrimination capability (FACSCalibur, Becton Dickinson, San Jose, Calif.). Accumulation of cells in G0/G1, early S (SE), mid S (SM), late S (SL) or G2/M phases of the cell cycle was analyzed using MODFIT LT software (Verity Software House Inc., Topsham, Mass.).
Exponentially growing Jurkat human leukemia T cells (Table 28) and MCF-7 human breast cancer cells (5×10^5 cells/ml) (Table 29) were incubated for 24 h with 2, 6, 15, 18, 27 and 45 base sequences containing A, C, G and T. The cells were collected and centrifuged and cell cycle stage was determined.

[2] = tested on: OVCAR-3 human ovarian cancer cells; experiment: Inhibition of OVCAR-3 cell proliferation (MTT); type: cell-based; conditions: 100 μg/ml, 48 h, 5×10^5 cells/ml
Description: (§1) Cells were seeded in 6 (1 ml/well), 24 (0.5 ml/well) or 96 (0.1 ml/well) well flat-bottom microplates and were maintained at 37° C. in a 5% CO2 atmosphere. Unless stated otherwise, 2.5×10^5 cells/ml were incubated with 0 μg/ml (control) and 100 μg/ml (treated) of 2 to 45 base sequences containing A, C, G and T for 48 h.
(§2) Cell proliferation was measured using dimethylthiazol-diphenyl-tetrazolium (MTT) reduction (Mosman et al. J. Immunol. Methods 65:55, 1983). MTT was measured at a wavelength of 570 nm using a multiplate spectrophotometer reader (ELX800, Bio-TEK Instruments Inc., Winooski, Vt.).
OVCAR-3 ovarian cancer cells are a p53 mutated, p21/waf-1/Cip deleted, metastatic human solid tumor model. OVCAR-3 cells (5×10^5 cells/ml) were incubated with 2, 6 and 18 base GT sequences and with a 6 base AGT sequence (Table 11).

[3] = tested on: SK-OV-3 human ovarian cancer cells; experiment: Inhibition of SK-OV-3 cell proliferation (MTT); type: cell-based; conditions: 100 μg/ml, 48 h, 5×10^5 cells/ml
Description: as §1, §2
SK-OV-3 ovarian cancer cells are a p53 mutated, p21/waf-1/Cip deleted, p15^ink4B deleted, p16^Ink4 deleted, metastatichuman solid tumor model. SK-OV-3 cells (5×10^5 cells/ml) were incubated with 2, 6 and 18 base GT sequences (Table 12).

[4] = tested on: EL-4 murine T lymphoma cells; experiment: EL-4 murine T lymphoma in C57/BL6 mice; type: in vivo; conditions: after 4 weeks of treatment, compared with group 1 (saline)
Description: EL-4 murine T lymphoma cells are implanted into C57/BL6 mice. The mice are divided into 6 groups of 10 mice. On day 0, group 1 mice receive saline, group 2 mice receive 3 base GT SEQ ID NO:8, group 3 mice receive 6 base SEQ ID NO:25, group 4 mice receive 6 base AG SEQ ID NO:45, group 5 mice receive 18 base GT SEQ ID NO: 18 and group 6 mice receive 27 base GT SEQ ID NO:1. After 4 weeks of treatment, the mice are sacrificed and tumor mass is determined.

[5] = tested on: EL-4 murine T lymphoma cells; experiment: Inhibition of EL-4 cell proliferation (MTT); type: cell-based; conditions: 100 μg/ml, 48 h
Description: as §1, §2
EL-4 murine lymphoma T cells are a suspension tumor model. EL-4 murine lymphoma T cells were incubated with 6, 18, 27 and 33 base GT sequences and with a 15 base ACG sequence (Table 18).

[6] = tested on: Jurkat human leukemia T cells; experiment: Cell cycle stage in Jurkat cells (propidium iodide flow cytometry); type: cell-based; conditions: Jurkat, 24 h, 100 μg/ml
Outline: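 Exponentially growing Jurkat cells were exposed for 24 h to 2–45-base A/C/G/T oligonucleotides, or at 1×10^6 cells/ml to 6-base GT and AC strands, alone (heated 10 min, 65 °C) or hybridized 1:1. Detergent-, trypsin-, RNase- and spermine-treated nuclei were propidium iodide-stained and scored for G0/G1, early/mid/late S and G2/M by doublet-discriminating flow cytometry.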

[7] = tested on: Jurkat human leukemia T cells; experiment: Inhibition of Jurkat human leukemia T cell proliferation (MTT reduction); type: cell-based; conditions: for % INHIBITION of Jurkat human leukemia T cell proliferation: 100 μg/ml sequence, 48 h, 2.5×10^5 cells/ml
Outline: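 Jurkat cells at 2.5×10^5 cells/ml exposed to 100 μg/ml of 2–45-base A/C/G/T sequences (0 μg/ml control) for 48 h, 37° C, 5% CO2. Viability by MTT reduction read at 570 nm.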

[8] = tested on: THP-1 human acute monocytic leukemia cells; experiment: Cytokine production by THP-1 cells (ELISA); type: cell-based; conditions: THP-1, 1×10^6 cells, 100 μg/ml, 48 h
Outline: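 1×10^6 cells exposed to 100 μg/ml of each oligonucleotide sequence for 48 h at 37° C in 5% CO2, unless stated otherwise. Cytokines quantified in culture supernatant by ELISA, IL-12 assay detecting both p70 and free p40; values are fold increase over untreated control cells.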

[9] = tested on: MCF-7 human breast cancer cells; experiment: Inhibition of MCF-7 cell proliferation (MTT); type: cell-based; conditions: alone or with sequence at 1.0 μg/ml
Outline: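 Cells at 2.5×10^5 cells/ml (GT 3- and 6-base series at 5×10^5 cells/ml) treated with 100 μg/ml of 2-45-base oligonucleotide sequences versus untreated control for 48 h at 37 °C, 5% CO2. Proliferation read by MTT reduction at 570 nm.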

[10] = tested on: MCF-7 human breast cancer cells; experiment: MCF-7 human breast tumor xenografts in female nude BALB/c mice; type: in vivo; conditions: after 4 weeks of treatment, compared with other groups (group 1 saline)
Description: MCF-7 human breast cancer cells are implanted subcutaneously as xenografts, in female nude BALB/c mice. The mice are divided into 6 groups of 10 mice. […] After 4 weeks of treatment, the mice are sacrificed and tumor mass is determined.

Burkitt lymphoma cells = conditions: Mata et al. 1997; cited from earlier work
telomerase = target: T1, telomerase (Homo sapiens, UniProt O14746); experiment: PCR-telomeric repeat amplification protocol (TRAP) on Jurkat T cell extracts; type: biochemical; conditions: concentrations between 1 and 100 μg/ml, extracts from 2×10^5 Jurkat T cells; listed as SEQ ID NO:49-phosphodiester
T1 construct: extracts from 2×10^5 Jurkat T cells were assayed using the PCR-telomeric repeat amplification protocol (TRAP); endogenous in cells; host or cells: Jurkat T cells (cell extract)
T1 sequence (O14746 whole entry): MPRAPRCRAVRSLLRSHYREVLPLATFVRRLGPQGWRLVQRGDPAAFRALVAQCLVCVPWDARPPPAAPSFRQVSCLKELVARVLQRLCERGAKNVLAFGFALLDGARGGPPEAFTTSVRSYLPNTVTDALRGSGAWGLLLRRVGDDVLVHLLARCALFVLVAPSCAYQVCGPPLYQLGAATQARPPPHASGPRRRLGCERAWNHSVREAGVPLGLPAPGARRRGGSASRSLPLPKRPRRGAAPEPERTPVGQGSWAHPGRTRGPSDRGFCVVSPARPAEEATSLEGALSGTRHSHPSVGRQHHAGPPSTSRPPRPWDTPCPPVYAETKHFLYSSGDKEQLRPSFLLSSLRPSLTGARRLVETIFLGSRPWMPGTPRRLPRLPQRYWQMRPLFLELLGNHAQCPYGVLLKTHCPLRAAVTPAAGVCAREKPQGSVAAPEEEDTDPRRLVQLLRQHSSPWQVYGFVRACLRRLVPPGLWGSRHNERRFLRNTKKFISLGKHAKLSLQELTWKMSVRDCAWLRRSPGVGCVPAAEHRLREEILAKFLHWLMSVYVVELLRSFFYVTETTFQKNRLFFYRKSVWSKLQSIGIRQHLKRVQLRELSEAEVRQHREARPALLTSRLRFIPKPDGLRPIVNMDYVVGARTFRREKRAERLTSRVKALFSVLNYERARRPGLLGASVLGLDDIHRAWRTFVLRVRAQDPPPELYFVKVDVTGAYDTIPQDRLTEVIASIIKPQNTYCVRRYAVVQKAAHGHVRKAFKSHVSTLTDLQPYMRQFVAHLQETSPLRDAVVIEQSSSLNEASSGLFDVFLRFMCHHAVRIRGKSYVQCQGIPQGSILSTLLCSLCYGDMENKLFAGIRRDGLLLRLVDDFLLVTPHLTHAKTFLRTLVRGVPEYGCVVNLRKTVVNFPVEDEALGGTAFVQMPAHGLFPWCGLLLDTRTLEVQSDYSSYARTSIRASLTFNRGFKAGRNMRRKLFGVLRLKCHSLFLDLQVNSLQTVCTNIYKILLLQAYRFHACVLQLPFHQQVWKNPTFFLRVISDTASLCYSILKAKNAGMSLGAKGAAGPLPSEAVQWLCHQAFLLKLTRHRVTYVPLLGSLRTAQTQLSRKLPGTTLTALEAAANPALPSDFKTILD
Description: To determine telomerase activity, extracts from 2×10^5 Jurkat T cells were assayed using the PCR-telomeric repeat amplification protocol (TRAP) (Roche, Laval, Québec, Canada).

Compound: GTGTGTGTGTGTGTGTGT (unmodified DNA) [SEQ ID NO:18]
- % cells in phase: G0/G1 [1]: 25.3%
- % cells in phase: G2/M [1]: 15.7%
- % cells in phase: SE [1]: 31.6%
- % cells in phase: SL [1]: 10.5%
- % cells in phase: SM [1]: 16.9%
- Arrest (cell cycle) [1]: Mid SM
- % INHIBITION of OVCAR-3 human ovarian cancer cell proliferation [2]: 10%
- % INHIBITION of SK-OV-3 human ovarian cancer cell proliferation [3]: 6%
- tumor mass [4]: less tumor mass than group 1 mice
- % INHIBITION of EL-4 murine T lymphoma cell proliferation [5]: −2%
- % of cells in phase: G0/G1 [6]: 24.2%
- % of cells in phase: G2/M [6]: 16.4%
- % of cells in phase: SE [6]: 26.7%
- % of cells in phase: SL [6]: 8.7%
- % of cells in phase: SM [6]: 24.0%
- Arrest (cell cycle) [6]: Mid SM
- % INHIBITION of Jurkat human leukemia T cell proliferation [7]: 60%
- ↑ IL-6 (fold increase treated vs control cells) [8]: 2.8x

Compound: O=c1[nH]cc(F)c(=O)[nH]1 [5-Fluorouracil, reference compound]
- % INHIBITION of MCF-7 proliferation, 5-Fluorouracil 0.1 μg/ml ([9]; 5-fluorouracil 0.1 μg/ml): 13%
- inhibition at 1 µg/mL ([9]; Homo sapiens, MCF7, 5-fluorouracil 1.0 μg/ml, read-out: % INHIBITION of MCF-7 proliferation, 5-Fluorouracil 1.0 μg/ml): 28%
- tumor mass [10]: less tumor mass than group 1 mice
- % INHIBITION of Jurkat proliferation, 5-Fluorouracil 0.1 μg/ml ([7]; 5-fluorouracil 0.1 μg/ml, alone or with sequence at 1.0 μg/ml): 3%
- % INHIBITION of Jurkat proliferation, 5-Fluorouracil 10.0 μg/ml ([7]; 5-fluorouracil 10.0 μg/ml, alone or with sequence at 1.0 μg/ml): 38%
- inhibition at 1 µg/mL ([7]; Homo sapiens, Jurkat, 5-fluorouracil 1.0 μg/ml, alone or with sequence at 1.0 μg/ml): 14%

Compound: TTAGGG (phosphorothioate backbone) [SEQ ID NO:49-phosphorothioate]
- induction of apoptosis in Burkitt lymphoma cells (Burkitt lymphoma cells): induce apoptosis in Burkitt lymphoma cells
- inhibition of telomerase activity (Burkitt lymphoma cells): inhibit telomerase activity

Compound: TTAGGG (phosphodiester backbone) [SEQ ID NO:49, reference compound]
- % cells in phase: G0/G1 [1]: 20.0%
- % cells in phase: G2/M [1]: 15.0%
- % cells in phase: SE [1]: 18.6%
- % cells in phase: SL [1]: 20.7%
- % cells in phase: SM [1]: 25.7%
- Arrest (cell cycle) [1]: Mid SM
- anti-telomerase activity (telomerase): Neither GT SEQ ID NO:25-phosphorothioate nor GT SEQ ID NO:49-phosphodiester showed any anti-telomerase actvity
- % INHIBITION of OVCAR-3 human ovarian cancer cell proliferation [2]: 15%
- % INHIBITION of SK-OV-3 human ovarian cancer cell proliferation [3]: 11%
- % of cells in phase: G0/G1 [6]: 24.6%
- % of cells in phase: G2/M [6]: 12.8%
- % of cells in phase: SE [6]: 37.2%
- % of cells in phase: SL [6]: 5.9%
- % of cells in phase: SM [6]: 19.5%
- Arrest (cell cycle) [6]: Mid SM
- % INHIBITION of Jurkat human leukemia T cell proliferation [7]: 45%
- ↑ IL-6 (fold increase treated vs control cells) [8]: 6.7x
- ↑ IL-12 (fold increase treated vs control cells) ([8]; p70 complex and free p40): 2.0x
